Results from patent EP0554004A2, “Cephem compounds and antibacterial agents” (KATAYAMA SEIYAKUSYO CO. Ltd., priority 1992, dated 1993).

Experiments:
[1] = test system: clinically isolated MRSA; assay: Antibacterial potency against clinically isolated MRSA (Test Example 4); assay type: cell-based, methicillin-resistant Staphylococcus aureus; conditions: Staphylococcus aureus, 52 strains of clinically isolated MRSA; for MIC50: concentration inhibiting growth of 50% of the strains (Test Example 4), read-out: MIC50; for MIC90: concentration inhibiting growth of 90% of the strains (Test Example 4), read-out: MIC90
Procedure: 52 strains of clinically isolated MRSA were used, and MIC was determined for each of the strains according to the standard method of the Japan Chemotherapical Society as in Test Example 1. The minimum growth inhibitory concentration which inhibited growth of 50% of the strains tested was expressed as MIC50 (µg/ml), and the minimum growth inhibitory concentration which inhibited growth of 90% of the strains was expressed as MIC90 (µg/ml).
MIC 50 and MIC 90 were determined for each of the 52 strains of clinically isolated MRSA according to the same method as used in Test Example 2.
VCM (vancomycin) was used as control agent.

[2] = test system: S. aureus 167; assay: MIC against standard strains (Test Example 3); assay type: cell-based; conditions: Staphylococcus aureus; S. aureus 167 (MRSA) (Test Example 3); read-out: MIC
Procedure: (§1) By using each test strain cultured overnight at 37°C in a Muller-Hinton broth, there was prepared a bacterial solution with a bacterial cell population of 1 x 10^6 CFU/mi of the same bouillon. The bacterial solution was inoculated into the Muller-Hinton agar media each containing respectively one test agent and, after overnight incubation at 37°C, the minimum concentration that inhibited growth of the bacteria was determined and shown as MIC also in Table 1.
(§2) The minimum growth inhibitory concentration was determined for each of the 21 standard strains shown in Table 3, according to the same method as used in Test Example 1.
(§3) In the test, FMOX (flomoxef), CTM (cefotiam) and CEZ (cefazolin) were used as control agents.

[3] = test system: A. faecalis ATCC3750; assay: MIC against standard strains (Test Example 3); assay type: cell-based; conditions: Alcaligenes faecalis; A. faecalis ATCC3750 (Test Example 3); read-out: MIC
Procedure: as §1, §2, §3

[4] = test system: P. vulugaris OX-19; assay: MIC against standard strains (Test Example 3); assay type: cell-based; conditions: P. vulugaris OX-19 (Test Example 3); read-out: MIC
Procedure: as §1, §2, §3

[5] = test system: M. luteus ATCC 9341; assay: MIC against standard strains (Test Example 3); assay type: cell-based; conditions: Micrococcus luteus, ATCC9341; M. luteus ATCC 9341 (Test Example 3); read-out: MIC
Procedure: as §1, §2, §3

[6] = test system: E. coli CSH2 (RK1); assay: MIC against standard strains (Test Example 3); assay type: cell-based; conditions: Escherichia coli
Procedure: as §1, §2, §3

[7] = test system: S. epidemidis IAM1296; assay: MIC against standard strains (Test Example 3); assay type: cell-based; conditions: S. epidemidis IAM1296 (Test Example 3); read-out: MIC
Procedure: as §1, §2, §3

[8] = test system: S. aureus 209p JC-1; assay: MIC against standard strains (Test Example 3); assay type: cell-based; conditions: Staphylococcus aureus; S. aureus 209p JC-1 (Test Example 3); read-out: MIC
Procedure: as §1, §2, §3

[9] = test system: A. calcoaceticos T59; assay: MIC against standard strains (Test Example 3); assay type: cell-based; conditions: A. calcoaceticos T59 (Test Example 3); read-out: MIC
Procedure: as §1, §2, §3

[10] = test system: B. subtilis ATCC6633; assay: MIC against standard strains (Test Example 3); assay type: cell-based; conditions: Bacillus subtilis; B. subtilis ATCC6633 (Test Example 3); read-out: MIC
Procedure: as §1, §2, §3

[11] = test system: S. aureus 195; assay: MIC against standard strains (Test Example 3); assay type: cell-based; conditions: Staphylococcus aureus; S. aureus 195 (MRSA) (Test Example 3); read-out: MIC
Procedure: as §1, §2, §3

[12] = test system: E. coli NIHJ JC-2; assay: MIC against standard strains (Test Example 3); assay type: cell-based; conditions: Escherichia coli, NIHJJC2; E. coli NIHJ JC-2 (Test Example 3); read-out: MIC
Procedure: as §1, §2, §3

[13] = test system: S. aureus Smith; assay: MIC against standard strains (Test Example 3); assay type: cell-based; conditions: Staphylococcus aureus; S. aureus Smith (Test Example 3); read-out: MIC
Procedure: as §1, §2, §3

[14] = test system: E. cloacae ATCC13407; assay: MIC against standard strains (Test Example 3); assay type: cell-based; conditions: Enterobacter cloacae; E. cloacae ATCC13407 (Test Example 3); read-out: MIC
Procedure: as §1, §2, §3

[15] = test system: P. mirabilis IFO3849; assay: MIC against standard strains (Test Example 3); assay type: cell-based; conditions: Proteus mirabilis; P. mirabilis IFO3849 (Test Example 3); read-out: MIC
Procedure: as §1, §2, §3

[16] = test system: E. coli CSH2 (RE45); assay: MIC against standard strains (Test Example 3); assay type: cell-based; conditions: Escherichia coli
Procedure: as §1, §2, §3

[17] = test system: S. marcescens IAM1184; assay: MIC against standard strains (Test Example 3); assay type: cell-based; conditions: Serratia marcescens; S. marcescens IAM1184 (Test Example 3); read-out: MIC
Procedure: as §1, §2, §3

[18] = test system: M. Morganii IFO3848; assay: MIC against standard strains (Test Example 3); assay type: cell-based; conditions: Morganella morganii; M. Morganii IFO3848 (Test Example 3); read-out: MIC
Procedure: as §1, §2, §3

[19] = test system: C. freundii ATCC8090; assay: MIC against standard strains (Test Example 3); assay type: cell-based; conditions: Citrobacter freundii; C. freundii ATCC8090 (Test Example 3); read-out: MIC
Procedure: as §1, §2, §3

[20] = test system: K. pneumoniae IFO3317; assay: MIC against standard strains (Test Example 3); assay type: cell-based; conditions: Klebsiella pneumoniae; K. pneumoniae IFO3317 (Test Example 3); read-out: MIC
Procedure: as §1, §2, §3

[21] = test system: K. pneumoniae No. 42; assay: MIC against standard strains (Test Example 3); assay type: cell-based; conditions: Klebsiella pneumoniae; K. pneumoniae No. 42 (Test Example 3); read-out: MIC
Procedure: as §1, §2, §3

[22] = test system: P. aeruginosa NCTC10490; assay: MIC against standard strains (Test Example 3); assay type: cell-based; conditions: Pseudomonas aeruginosa; P. aeruginosa NCTC10490 (Test Example 3); read-out: MIC
Procedure: as §1, §2, §3

## NC(=O)Cc1ccc[n+](CC2=C(C(=O)[O-])N3C(=O)[C@@H](NC(=O)/C(=N\O)c4csc(N)n4)[C@H]3SC2)c1 [Compound (7), 7β-[2-(2-aminothiazol-4-yl)-2-syn-hydroxyiminoacetamido]-3-[(3-carbamoylmethyl-1-pyridinio)methyl]-3-cephem-4-carboxylic acid chloride]
[1]
  MIC50: 2.04 µg/mL
  MIC90: 5.44 µg/mL
[2]
  MIC: 12.5 µg/mL
[3]
  MIC: 1.56 µg/mL
[4]
  MIC: 0.39 µg/mL
[5]
  MIC: 0.1 µg/mL
[6]
  MIC: 0.78 µg/mL
[7]
  MIC: 0.1 µg/mL
[8]
  MIC: 0.2 µg/mL
[9]
  MIC: 3.13 µg/mL
[10]
  MIC: 0.39 µg/mL
[11]
  MIC: 3.13 µg/mL
[12]
  MIC: 0.2 µg/mL
[13]
  MIC: 0.39 µg/mL
[14]
  MIC: 0.39 µg/mL
[15]
  MIC: 0.2 µg/mL
[16]
  MIC: 0.2 µg/mL
[17]
  MIC: 0.2 µg/mL
[18]
  MIC: 0.1 µg/mL
[19]
  MIC: 0.2 µg/mL
[20]
  MIC: 0.2 µg/mL
[21]
  MIC: 0.39 µg/mL
[22]
  MIC: 1.56 µg/mL

## CNc1nc(-c2ccc[n+](CC3=C(C(=O)[O-])N4C(=O)[C@@H](NC(=O)/C(=N\O)c5csc(N)n5)[C@H]4SC3)c2)cs1 [Compound (10), 7β-[2-(2-aminothiazol-4-yl)-2-syn-hydroxyiminoacetamido)-3-[[3-(2-methylaminothiazol-4-yl)-1-pyridinio]methyl]-3-cephem-4-carboxylic acid chloride]
[1]
  MIC50: 4.04 µg/mL
  MIC90: 8.37 µg/mL
[2]
  MIC: 12.5 µg/mL
[3]
  MIC: 6.25 µg/mL
[4]
  MIC: 0.39 µg/mL
[5]
  MIC: 0.1 µg/mL
[6]
  MIC: 3.13 µg/mL
[7]
  MIC: 0.2 µg/mL
[8]
  MIC: 0.39 µg/mL
[9]
  MIC: 50 µg/mL
[10]
  MIC: 0.39 µg/mL
[11]
  MIC: 3.13 µg/mL
[12]
  MIC: 1.56 µg/mL
[13]
  MIC: 0.78 µg/mL
[14]
  MIC: 12.5 µg/mL
[15]
  MIC: 3.13 µg/mL
[16]
  MIC: 1.56 µg/mL
[17]
  MIC: 3.13 µg/mL
[18]
  MIC: 0.2 µg/mL
[19]
  MIC: 1.56 µg/mL
[20]
  MIC: 0.39 µg/mL
[21]
  MIC: 6.25 µg/mL
[22]
  MIC: 25 µg/mL
